Entries after “also recorded” stand apart in the source; their conditions may differ. Like-named read-outs stand apart in the source and are kept apart here.
Legend:
[1] = system: P. aeruginosa CyaB (a Class III adenylyl cyclase); assay: Pseudomonas adenylyl cyclase assay with purified His-CyaB; assay type: biochemical, Pseudomonas aeruginosa; conditions: increasing concentrations of compound, FIG. 1 / FIG. 2
Method: (§1) FIG. 1. […] The CyaB was heterologously expressed in E. coli as a poly-histidine tagged fusion protein and purified using a nickel column. Adenylyl cyclase activity was determined by measuring cyclic AMP levels using the Correlate-EIA Direct Cyclic AMP assay kit from Assay Designs as per manufacturers instructions.
as §1, with “2.” for “1.”
P. aeruginosa CyaB (a Class III adenylyl cyclase) was heterologously expressed in E. coli as a HIS-tagged, fusion protein. Expression of the fusion protein was induced by Isopropyl β-D-1-thiogalactopyranoside (IPTG) t at 21° C. (empirically found to be best temperature for expression). The His-CyaB fusion protein was purified using a nickel affinity column according to standard protocols in the absence of any reducing agent. Eluted protein was dialyzed into storage buffer consisting of: 50 mM Tris (pH 8.5), 10 mM NaCl, 2 mM MgCl2, and 25% glycerol.
The purified CyaB was assayed for cyclase activity as follows. […]
(§2) Cyclic AMP levels were measured in each sample using the Correlate-EIA Direct Cyclic AMP assay kit from Assay Designs as per manufacturers instructions.

human sAC = biological target: T1, human sAC (Homo sapiens, UniProt Q96PN6); assay: in vitro adenylyl cyclase assay with purified human sAC protein (cAMP by Correlate-EIA); assay type: biochemical; conditions: for inhibition at 100 µM: 100 μM of compound
T1 construct: made in house
T1 sequence (Q96PN6 1-469 limits assumed): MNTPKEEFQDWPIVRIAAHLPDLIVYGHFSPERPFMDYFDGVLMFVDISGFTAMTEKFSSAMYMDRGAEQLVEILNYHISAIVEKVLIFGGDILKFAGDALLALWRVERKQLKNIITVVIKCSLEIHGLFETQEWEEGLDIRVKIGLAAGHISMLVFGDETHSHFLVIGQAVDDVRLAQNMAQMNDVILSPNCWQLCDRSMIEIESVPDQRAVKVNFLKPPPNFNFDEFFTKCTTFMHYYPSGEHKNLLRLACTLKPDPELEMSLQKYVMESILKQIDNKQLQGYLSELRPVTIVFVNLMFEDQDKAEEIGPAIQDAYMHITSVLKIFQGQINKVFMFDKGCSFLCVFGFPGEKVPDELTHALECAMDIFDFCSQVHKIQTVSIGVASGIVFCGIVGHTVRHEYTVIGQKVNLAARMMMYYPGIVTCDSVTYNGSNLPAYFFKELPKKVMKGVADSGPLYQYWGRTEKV
Method: Purified human sAC protein was used in an in vitro adenylyl cyclase assay. Purification of the protein is described in detail in Litvin et al. 2003. (J. Biol. Chem. 278:15922-15926). This paper also describes the general conditions for a sAC cyclase assay. The specific conditions for the in vitro assay are as follows.
For basal sAC activity, an assay master mixture with sufficient volume for all reactions was prepared containing:
100 U/ml creatine phosphokinase (CPK)
An aliquot of the master mixture was added to the purified human sAC. The assay mixture also included the indicated concentration of KH compound, or an equivalent volume of vehicle (i.e., DMSO) as control. The reaction was started by adding 5 mM ATP (total assay volume=100 μL). The reaction mixture was incubated at 30° C. for 30 minutes and then stopped by adding 100 μl […]. Stimulated assay conditions involve adding 40 mM bicarbonate and 5 mM CaCl2 to the above master mixture.
as §2

SMILES: COc1ccc(C2=NN(C(=O)CSc3nc4ccccc4[nH]3)C(c3ccc(F)cc3)C2)cc1 (centres unmarked) [KH7.120]
- effect on CyaB adenylyl cyclase activity [1]: activator; also recorded: increase in the activity
- inhibition at 100 µM (human sAC; BASAL human sAC in vitro activity, read-out: % Inhibition (100 μM), hsACt-Basal): 90%
- inhibition at 100 µM (human sAC; stimulated human sAC in vitro activity, read-out: % Inhibition (100 μM), hsACt-Stim.): 90%
- IC50 (human sAC; BASAL activity of human sAC in vitro (just Mg-ATP, no calcium or bicarbonate), read-out: hsACt-Basal approximate IC50 (or the dose range where the IC50 should lie)): 10 to 100 µM
- IC50 (human sAC; stimulated activity of human sAC in vitro (calcium and bicarbonate stimulated), read-out: hsACt-Stim. approximate IC50 (or the dose range where the IC50 should lie)): 10 to 100 µM
